{"source": "patent US20100248390A1", "about": "“COMPOSITIONS AND METHODS FOR IDENTIFYING LIGANDS OF ODORANT RECEPTORS” (DUKE UNIVERSITY, priority 2009, published 2010)", "experiment_in_all_cases": "CRE-luciferase assay of odorant receptor activation (Dual-Glo, Hana3A cells, RTP1S), dose-response EC50", "assay_type_in_all_cases": "cell-based", "key": {"[1]": {"molecular_target": "T1, human odorant receptors (ORs) (Homo sapiens, UniProt Q8NG81)", "T1 construct": "OR open reading frames were amplified from genomic DNA; expressed in transfected cells; host or cells: Hana3A cells, co-transfected with RTP1S, CRE-luciferase and pRL-SV40", "T1 sequence (Q8NG81 1-312)": "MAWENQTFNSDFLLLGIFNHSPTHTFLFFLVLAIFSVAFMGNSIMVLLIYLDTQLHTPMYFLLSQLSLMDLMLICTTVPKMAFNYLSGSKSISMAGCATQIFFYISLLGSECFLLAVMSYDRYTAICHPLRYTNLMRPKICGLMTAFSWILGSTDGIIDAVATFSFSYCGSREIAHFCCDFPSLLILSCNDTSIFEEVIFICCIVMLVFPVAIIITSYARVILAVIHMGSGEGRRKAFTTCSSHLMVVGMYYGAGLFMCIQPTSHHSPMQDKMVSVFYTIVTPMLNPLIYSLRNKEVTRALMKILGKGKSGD", "conditions": "receptor OR2M7", "summary_of_the_method": "(§1)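 Hana3A cells were co-transfected with Rho-tagged OR, RTP1S, CRE-luciferase and pRL-SV40, then exposed to odorant in CD293 medium for 4 hrs at 37° C. Firefly luminescence was divided by Renilla and normalized as (LN−Lmin)/(Lmax−Lmin) per plate set. Each dose was tested at least three times, and EC50 came from sigmoidal fits.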"}, "[2]": {"molecular_target": "T2, human odorant receptors (ORs) (Homo sapiens, UniProt Q8NGJ5)", "T2 construct": "OR open reading frames were amplified from genomic DNA; expressed in transfected cells; host or cells: Hana3A cells, co-transfected with RTP1S, CRE-luciferase and pRL-SV40", "T2 sequence (Q8NGJ5 1-315)": "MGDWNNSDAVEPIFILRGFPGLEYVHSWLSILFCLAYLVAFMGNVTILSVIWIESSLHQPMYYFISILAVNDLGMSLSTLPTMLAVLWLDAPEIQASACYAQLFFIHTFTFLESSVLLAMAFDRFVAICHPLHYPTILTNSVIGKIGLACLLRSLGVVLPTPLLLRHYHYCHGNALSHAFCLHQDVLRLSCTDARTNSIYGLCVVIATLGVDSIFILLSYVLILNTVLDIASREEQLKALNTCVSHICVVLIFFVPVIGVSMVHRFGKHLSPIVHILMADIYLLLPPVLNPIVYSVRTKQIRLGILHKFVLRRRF", "summary_of_the_method": "as §1"}, "[3]": {"molecular_target": "T3, human odorant receptors (ORs) (Homo sapiens, UniProt O95371)", "T3 construct": "OR open reading frames were amplified from genomic DNA; expressed in transfected cells; host or cells: Hana3A cells, co-transfected with RTP1S, CRE-luciferase and pRL-SV40", "T3 sequence (O95371 1-312)": "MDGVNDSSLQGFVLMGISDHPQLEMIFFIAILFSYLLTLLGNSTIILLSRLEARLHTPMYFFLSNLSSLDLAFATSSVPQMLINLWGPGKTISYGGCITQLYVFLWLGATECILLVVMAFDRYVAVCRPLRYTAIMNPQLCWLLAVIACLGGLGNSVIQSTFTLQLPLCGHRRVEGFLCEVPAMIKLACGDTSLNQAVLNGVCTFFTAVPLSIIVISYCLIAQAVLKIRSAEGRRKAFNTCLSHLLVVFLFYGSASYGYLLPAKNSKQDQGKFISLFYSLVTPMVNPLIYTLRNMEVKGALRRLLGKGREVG", "conditions": "receptor OR2C1; read-out: log EC50 of odorant at OR2C1 (0 = no response) (converted)", "summary_of_the_method": "as §1"}, "[4]": {"molecular_target": "T4, human odorant receptors (ORs) (Homo sapiens, UniProt Q8TCB6)", "T4 construct": "OR open reading frames were amplified from genomic DNA; expressed in transfected cells; host or cells: Hana3A cells, co-transfected with RTP1S, CRE-luciferase and pRL-SV40", "T4 sequence (Q8TCB6 1-318)": "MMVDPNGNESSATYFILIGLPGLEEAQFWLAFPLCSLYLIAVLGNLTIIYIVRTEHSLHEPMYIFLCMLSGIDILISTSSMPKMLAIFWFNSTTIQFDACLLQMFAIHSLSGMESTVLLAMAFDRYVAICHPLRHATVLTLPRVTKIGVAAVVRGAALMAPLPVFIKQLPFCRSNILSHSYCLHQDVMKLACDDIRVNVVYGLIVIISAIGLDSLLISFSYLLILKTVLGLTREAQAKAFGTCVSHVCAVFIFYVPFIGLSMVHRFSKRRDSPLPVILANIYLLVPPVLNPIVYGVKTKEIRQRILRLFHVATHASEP", "summary_of_the_method": "as §1"}}, "note": "Like-named read-outs stand apart in the source and are kept apart here."}
{"smiles": "CC(C)=CCCC(C)CCO", "note": "(single isomer, unassigned; (-)) [(−)-b-C ? inedol]", "values": [{"measurement": "EC50", "setting": "[1]; 0 = no response, read-out: log EC50, OR2M7 (converted)", "value": 140, "unit": "µM"}]}
{"smiles": "C=CCOC(=O)Cc1ccccc1", "note": "[Allyl phenylacetate]", "values": [{"measurement": "EC50", "setting": "[2]", "value": 67.6, "unit": "µM"}]}
{"smiles": "CC(C)=CCC/C(C)=C/CO", "note": "[Getaniol]", "values": [{"measurement": "EC50", "setting": "[1]; read-out: log EC50 (Table 4 value), OR2M7 (converted)", "value": 627, "unit": "µM"}]}
{"smiles": "CCCCCCCCCS", "note": "[Nonanethiol]", "values": [{"measurement": "EC50", "setting": "[3]", "value": 128, "unit": "µM"}]}
{"smiles": "CCCCCCCCC(=O)O", "note": "[Nonanoic acid]", "values": [{"measurement": "EC50", "setting": "[4]", "value": 246, "unit": "µM"}]}
{"smiles": "CCCCCCCCS", "note": "[Octanethiol]", "values": [{"measurement": "EC50", "setting": "[3]", "value": 88.9, "unit": "µM"}]}
